Paper PMC12136031 (Science Advances, 2025)

Columns and labels:
TFEB = assay: Immunoblot of TFEB in OC43-infected BEAS-2B cells; assay type: cell-based, human; conditions: for TFEB protein during viral infection: OC43, cotreatment with inhibitors of ubiquitin-proteasome system; for Decline in TFEB protein levels during viral infection: OC43, mTORC1 inhibition (10 nM)
[1] = target: T1, DCAF7 recombinant protein, P61962; assay: streptavidin pull-down (peptide binding assay), DCAF7 immunoblot densitometry; conditions: chain shown with the change; n = 3; parent: est. 1.0; read off a plot
T1 chain: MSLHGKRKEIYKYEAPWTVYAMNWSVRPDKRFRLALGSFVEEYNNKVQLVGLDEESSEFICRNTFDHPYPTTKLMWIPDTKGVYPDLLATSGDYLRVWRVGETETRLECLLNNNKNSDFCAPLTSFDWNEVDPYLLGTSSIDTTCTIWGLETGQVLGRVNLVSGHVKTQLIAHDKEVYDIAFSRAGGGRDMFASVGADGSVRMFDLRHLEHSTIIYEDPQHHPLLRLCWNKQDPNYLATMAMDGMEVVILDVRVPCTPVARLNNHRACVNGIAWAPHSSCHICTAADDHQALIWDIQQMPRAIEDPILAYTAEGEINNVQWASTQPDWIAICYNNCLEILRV

## NS(=O)(=O)OC[C@@H]1C[C@@H](n2ccc3c(N[C@H]4CCc5ccccc54)ncnc32)C[C@@H]1O [MLN4924]
TFEB
  TFEB protein during viral infection: substantially preserved

## CO[C@H]1C[C@@H]2CC[C@@H](C)[C@@](O)(O2)C(=O)C(=O)N2CCCC[C@H]2C(=O)O[C@H]([C@H](C)C[C@@H]2CC[C@@H](O)[C@H](OC)C2)CC(=O)[C@H](C)/C=C(\C)[C@@H](O)[C@@H](OC)C(=O)[C@H](C)C[C@H](C)/C=C/C=C/C=C/1C [rapamycin]
TFEB
  Decline in TFEB protein levels during viral infection: did not rescue

## CCC(=O)N1CCN(c2ccc(-n3c(=O)ccc4cnc5ccc(-c6cnc7ccccc7c6)cc5c43)cc2C(F)(F)F)CC1 [Torin1]
TFEB
  Decline in TFEB protein levels during viral infection: did not rescue

## CC(C)C[C@H](NC(=O)[C@H](CCc1ccccc1)NC(=O)CN1CCOCC1)C(=O)N[C@@H](Cc1ccccc1)C(=O)N[C@@H](CC(C)C)C(=O)[C@@]1(C)CO1 [carfilzomib]
TFEB
  TFEB protein during viral infection: substantially preserved

## NS(=O)(=O)OC[C@H]1C[C@@H](Nc2ccnc3cc(-c4cccc(SC(F)(F)F)c4)nn23)[C@H](O)[C@@H]1O [TAK-243]
TFEB
  TFEB protein during viral infection: substantially preserved

B1: Biotinylated TFEB peptide, region 136 to 145, unmodified sequence (I), P19484 S138A; S142A (peptide)
chain: GNAAPNAPMA
[1]
  response: 0.5

B2: Biotinylated TFEB peptide, region 136 to 145, unmodified sequence (I), P19484 S138D; S142D (peptide)
chain: GNDAPNDPMA
[1]
  response: 2.9
